{"source": "paper PMC11187126", "about": "“Structure and dynamics of the pyroglutamylated RF-amide peptide QRFP receptor GPR103” (Nature Communications, 2024)", "molecular_target": "T1, GPR103 C285^6.47A (Homo sapiens, UniProt Q96P65, C285A)", "T1 construct": "we used human full-length QRFPR-encoding plasmids; expressed in transfected cells; host or cells: HEK293 cells (HEK293A in the flow cytometry section), pCAGGS vector", "T1 sequence (Q96P65 1-431 C285A)": "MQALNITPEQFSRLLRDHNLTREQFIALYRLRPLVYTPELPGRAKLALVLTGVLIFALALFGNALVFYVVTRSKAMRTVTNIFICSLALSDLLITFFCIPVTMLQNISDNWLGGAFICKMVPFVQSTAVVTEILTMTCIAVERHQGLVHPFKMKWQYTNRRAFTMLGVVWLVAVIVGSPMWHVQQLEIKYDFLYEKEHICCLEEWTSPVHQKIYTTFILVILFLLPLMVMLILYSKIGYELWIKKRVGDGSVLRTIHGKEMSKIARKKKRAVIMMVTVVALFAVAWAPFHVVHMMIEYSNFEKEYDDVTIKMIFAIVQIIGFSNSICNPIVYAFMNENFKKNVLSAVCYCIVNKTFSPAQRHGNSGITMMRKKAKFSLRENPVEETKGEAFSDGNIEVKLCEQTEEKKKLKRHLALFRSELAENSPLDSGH", "test": "TGFα shedding assay; Exp. level WT (1:20)", "format": "cell-based", "note": "Read-outs that look alike come from different tables or passages of the source. No end group written: not given here."}
{"substance": "TSGPLGNLAEELNGYSRKKGGFSFRF-NH2 [QRFP26]", "values": [{"measurement": "Emax", "setting": "Exp. #1", "result": 81.15, "unit": "% WT"}, {"measurement": "Emax", "setting": "Exp. #2", "result": 80.43, "unit": "% WT"}, {"measurement": "Emax", "setting": "Exp. #3", "result": 87.98, "unit": "% WT"}, {"measurement": "Emax", "setting": "mean, read-out: Emax", "result": 83.2, "unit": "%"}, {"measurement": "EC50", "setting": "n = 3", "result": 14.1, "unit": "nM"}, {"measurement": "Emax", "setting": "n = 3, read-out: Emax", "result": "86.7 ± 2", "unit": "%"}]}
